Laboratory results taken from PubChem BioAssay (NCI).
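Briefly, cells in 96-well plates were exposed to five compound concentrations for 48 h, and endpoints were estimated by linear interpolation. GI50 = concentration required for 50% inhibition of growth. Definition used: TGI = concentration required for complete inhibition of growth.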

Tests used:
Test in all cases: NCI tumour cell line growth inhibition, 48 h
M14 melanoma = system: M14 melanoma
TK-10 renal = system: TK-10 renal
RPMI-8226 leukemia = system: RPMI-8226 leukemia
CCRF-CEM leukemia = system: CCRF-CEM leukemia
SW-620 colon = system: SW-620 colon
HCC-2998 colon = system: HCC-2998 colon
SF-539 CNS = system: SF-539 CNS
NCI-H522 lung = system: NCI-H522 lung
DU-145 prostate = system: DU-145 prostate
T-47D breast = system: T-47D breast

Row | Compound | TGI (M14 melanoma) [µM] | TGI (TK-10 renal) [µM] | TGI (RPMI-8226 leukemia) [µM] | TGI (CCRF-CEM leukemia) [µM] | TGI (SW-620 colon) [µM] | TGI (HCC-2998 colon) [µM] | TGI (SF-539 CNS) [µM] | TGI (NCI-H522 lung) [µM] | GI50 (M14 melanoma) [µM] | GI50 (TK-10 renal) [µM] | GI50 (RPMI-8226 leukemia) [µM] | GI50 (CCRF-CEM leukemia) [µM] | GI50 (SW-620 colon) [µM] | GI50 (HCC-2998 colon) [µM] | GI50 (SF-539 CNS) [µM] | GI50 (DU-145 prostate) [µM] | TGI (DU-145 prostate) [µM] | GI50 (T-47D breast) [µM] | TGI (T-47D breast) [µM] | GI50 (NCI-H522 lung) [µM]
1 | O=C(NO)C(=O)Nc1ccc(Cl)cc1[N+](=O)[O-] | > 100 | > 100 | > 100 | > 100 | > 100 | > 100 | > 100 | > 100 | – | – | – | – | – | – | – | – | – | – | – | –
2 | CCC(C(=O)[O-])C(=O)[O-].CCC(C(=O)[O-])C(=O)[O-].N.N.NCCCCCCN.[Pt+4].[Pt+4] | 13.1 | 15.1 | 11.9 | 2.87 | 1.71 | 15.8 | 21.7 | – | 6.68 | 8.23 | 3.66 | 1.1 | 0.9 | 8.29 | 10.4 | – | – | – | – | –
3 | CC1=C(c2cc(C(=O)Nc3cccc(C(F)(F)F)c3)ncn2)Sc2ccccc2N1 | > 100 | > 100 | > 100 | > 100 | > 100 | – | > 100 | > 100 | – | – | – | – | – | – | – | – | – | – | – | –
4 | OC(c1ccccn1)C1CNc2ccccc21 (configuration not stated) | > 100 | > 100 | > 100 | > 100 | > 100 | > 100 | > 100 | > 100 | – | – | – | – | – | – | – | – | – | – | – | –
5 | Cc1nc(Nc2ccc([N+](=O)[O-])cc2)sc1C(/C=C/c1ccc(N(C)C)cc1)=N/NC(=O)c1ccccc1 | > 100 | > 100 | – | > 100 | > 100 | > 100 | > 100 | > 100 | – | – | – | – | – | – | – | – | – | – | – | –
6 | c1ccc(COCC2OC3c4ccccc4COC3C2OCc2ccccc2)cc1 (configuration not stated) | > 100 | > 100 | > 100 | – | > 100 | > 100 | > 100 | – | – | – | – | – | – | – | – | – | – | – | – | –
7 | CC(=O)NNc1nc(C)c(C(/C=C/c2ccc(Cl)cc2)=N/NC(=O)C[N+](C)(C)C)s1 | > 100 | > 100 | – | > 100 | > 100 | > 100 | > 100 | > 100 | – | – | – | – | – | – | – | – | – | – | – | –
8 | COC(=O)C(Cc1nc2ccc(Cl)cc2[nH]c1=O)/C(=N/NC(N)=O)C(=O)Nc1ccc(Cl)cc1 (configuration not stated) | > 100 | > 100 | > 100 | > 100 | > 100 | > 100 | > 100 | > 100 | – | – | – | – | – | – | – | – | – | – | – | –
9 | N#CC1(C=O)c2ccccc2C=CN1C(=O)c1ccccc1 (configuration not stated) | 92.4 | > 100 | – | 78.4 | 19.3 | > 100 | – | > 100 | – | – | – | – | – | – | – | – | – | – | – | –
10 | Cn1c2c(c3ccccc31)CCN(CCCCN1CCN(c3cccc(Cl)c3)CC1)C2=O | 10.7 | 25.1 | 27.4 | > 100 | 26.4 | – | 26.5 | 25.6 | – | – | – | – | – | – | – | – | – | – | – | –
11 | O=C([O-])c1ccc(C(=O)[O-])cc1.O=C([O-])c1ccc(C(=O)[O-])cc1.[Mo+2].[Mo+2] | > 100 | > 100 | > 100 | > 100 | > 100 | > 100 | > 100 | – | > 100 | > 100 | > 100 | > 100 | > 100 | > 100 | > 100 | – | – | – | – | –
12 | CNCCCNc1nc2ccccc2c2c(=O)c3cc(Cl)ccc3sc12 | – | 3.48 | – | – | 3.09 | 3.34 | 3.12 | – | – | 1.99 | – | – | 1.62 | 1.69 | 1.68 | 1.74 | 3.14 | – | – | –
13 | CCOC(=O)NC(=O)c1cn(CCN2CCN(C(=O)CCCCCCCCCCNc3ncnc4nc[nH]c34)CC2)c(=O)[nH]c1=O | > 100 | > 100 | > 100 | > 100 | > 100 | > 100 | > 100 | – | – | – | – | – | – | – | – | – | – | – | – | –
14 | CCCCC#CC#Cc1cccc(=O)o1 | 40.6 | 28.3 | 90.8 | > 100 | 53.1 | – | 51.6 | 52.1 | 21.7 | 14.3 | 10.5 | 15.4 | 18.7 | – | 24.6 | 21.9 | 50.8 | 8.34 | 25.7 | 23.2
15 | COc1ccc(C(=O)COc2cccc(/C=C3\CSc4ccc(C)cc4C3=O)c2)cc1 | > 100 | > 100 | 6.47 | > 100 | 4.74 | – | > 100 | 37.2 | 23.6 | 19.8 | 1.89 | 2.76 | 2.03 | – | > 100 | 64.5 | > 100 | 11.7 | > 100 | 3.62
16 | O=C1C2c3[nH]c4ccccc4c3[C@@H]3CCCCC3C2C(=O)N1c1ccccc1 (some centres not stated) | 30 | 68.7 | 47.7 | 80.1 | 38.8 | 36.5 | – | – | – | – | – | – | – | – | – | – | – | – | – | –
17 | CCCCCCCCCCCCN(O)C(=O)c1ccccc1 | 82.2 | > 100 | > 100 | > 100 | > 100 | > 100 | 63.6 | > 100 | – | – | – | – | – | – | – | – | – | – | – | –

Row | Compound | TGI (M14 melanoma) [µM] | TGI (TK-10 renal) [µM] | TGI (RPMI-8226 leukemia) [µM] | TGI (CCRF-CEM leukemia) [µM] | TGI (SW-620 colon) [µM] | TGI (HCC-2998 colon) [µM] | TGI (SF-539 CNS) [µM] | TGI (NCI-H522 lung) [µM] | GI50 (M14 melanoma) [µM] | GI50 (TK-10 renal) [µM] | GI50 (RPMI-8226 leukemia) [µM] | GI50 (CCRF-CEM leukemia) [µM] | GI50 (SW-620 colon) [µM] | GI50 (HCC-2998 colon) [µM] | GI50 (SF-539 CNS) [µM] | GI50 (DU-145 prostate) [µM] | TGI (DU-145 prostate) [µM] | GI50 (T-47D breast) [µM] | TGI (T-47D breast) [µM] | GI50 (NCI-H522 lung) [µM]
18 | COc1cc([C@@H]2c3cc4c(cc3[C@@H](NC(=O)c3cccc(F)c3)C3COC(=O)[C@@H]32)OCO4)cc(OC)c1O (some centres not stated) | 6.72 | 17.1 | 5.85 | > 100 | 16.2 | 11.3 | 1.7 | 3.97 | – | – | – | – | – | – | – | – | – | – | – | –
19 | CCc1nc(N)nc(N)c1-c1ccc(NCCc2ccccc2)c([N+](=O)[O-])c1 | 39.3 | > 69.7 | 7.35 | > 61.2 | > 79.4 | 11.3 | 18 | – | – | – | – | – | – | – | – | – | > 53.8 | – | > 52.8 | –
20 | Cc1ccc(C)c(NC(=O)CCc2nc(=S)[nH][nH]2)c1 | > 100 | > 100 | > 100 | > 100 | 33 | > 100 | > 100 | > 100 | – | – | – | – | – | – | – | – | – | – | – | –
21 | O=C(O)Cn1c(=O)[nH]c(=O)c2c1ncn2Cc1ccccc1 | > 100 | > 100 | > 100 | > 100 | > 100 | – | > 100 | > 100 | – | – | – | – | – | – | – | – | – | – | – | –
22 | Cc1ccc2[nH]c3c(ncc4[nH]c5ccccc5c43)c2c1 | 35.8 | 37.6 | 44.3 | 35.9 | 26.7 | 30.2 | 30.7 | 39.6 | – | – | – | – | – | – | – | – | – | – | – | –
23 | O=C(NNC(=O)c1cc(/C=C/c2cccc([N+](=O)[O-])c2)[nH]c(=S)n1)Nc1ccc(Cl)cc1 | > 100 | > 100 | 52.9 | 51.2 | – | > 100 | – | 81.8 | – | – | – | – | – | – | – | – | – | – | – | –
24 | Cc1cc(C)c(S(=O)(=O)ONC(=O)OC(C)(C)C)c(C)c1 | > 100 | > 100 | > 100 | > 100 | > 100 | > 100 | > 100 | > 100 | – | – | – | – | – | – | – | – | – | – | – | –
25 | CC/C(C)=C1\OC(=O)C(C)C(O)C(Cc2cccnc2)NC(=O)C(NC(=O)c2ncccc2O)C(C)OC1=O (configuration not stated) | > 100 | > 100 | > 100 | – | > 100 | > 100 | > 100 | – | – | – | – | – | – | – | – | – | > 100 | – | > 100 | –
26 | COC12CC(=O)C(C(C)=O)=C(O)C1(C)c1c(OC(C)=O)c(C)c(O)c(C(C)=O)c1O2 (configuration not stated) | > 100 | 69.7 | > 100 | 66.8 | > 100 | 84 | > 100 | – | – | – | – | – | – | – | – | – | – | – | – | –
27 | CC(=O)OCC1O[C@@H]([S-])C(OC(C)=O)[C@H](OC(C)=O)[C@@H]1OC(C)=O.[Au+].c1ccc(CN2[CH-]N(Cc3ccccc3)C(c3ccccc3)=C2c2ccccc2)cc1 | 3.58 | 3.42 | 4.94 | 5.51 | – | 3.66 | 3.56 | 3.66 | 1.69 | 1.86 | 1.9 | 1.99 | – | 1.96 | 1.85 | 1.89 | 3.54 | – | – | 1.58
28 | O=C(NCCCCCCCCNC(=O)c1cccc2ccccc12)c1cccc2ccccc12 | > 87 | 43.3 | > 100 | > 100 | > 100 | > 100 | 34 | > 46.4 | – | – | – | – | – | – | – | – | > 100 | – | – | –
29 | COc1ccc(/C(=N/NC(N)=O)C(c2ccc(OC)cc2)C2C(=O)Oc3ccccc32)cc1 (configuration not stated) | > 100 | – | > 100 | > 100 | > 100 | > 100 | > 100 | > 100 | – | – | – | – | – | – | – | – | – | – | – | –
30 | O=C1C(Cl)=C(Nc2cccc(O)c2)C(=O)N1c1ccccc1Cl | > 100 | – | 35.1 | 19.6 | > 100 | – | – | 41.8 | 21.5 | – | 10.4 | 1.48 | 52.3 | – | – | 30.9 | > 100 | 32.3 | > 100 | 17.3
31 | COc1cc(-c2cc(=O)c3cc(C)c(C)c(C(=O)O)c3o2)cc(OC)c1OC | > 100 | > 100 | > 100 | > 100 | > 100 | > 100 | > 100 | > 100 | – | – | – | – | – | – | – | – | – | – | – | –
32 | CN(C)c1n/c(=N/c2ncn[nH]2)ss1 | > 100 | > 100 | > 100 | > 100 | > 100 | > 100 | > 100 | > 100 | – | – | – | – | – | – | – | – | – | – | – | –
33 | CC(C)(C)C(=O)O[C@@H]1COC2C(O)COC21 (some centres not stated) | > 100 | > 100 | – | > 100 | > 100 | > 100 | > 100 | > 100 | – | – | – | – | – | – | – | – | – | – | – | –
